Measured values published in article PMC12615863, “Improving GRPR-targeting peptides for radiotheranostics application: insights from chelator modifications and α-methyl-L tryptophan substitution” (EJNMMI Radiopharmacy and Chemistry, 2025).

Key:
PC-3 cells = assay: In vitro GRPR specificity assay (uptake with or without NOTA-PEG2-RM26 block); type: cell-based, human; conditions: 1 nM radiopeptide, 1 h at 37 °C, block with 1 µM NOTA-PEG2-RM26, n = 3
Experimental: After discarding the medium, the cells were washed with cold (4 °C) phosphate-buffered saline containing 1% w/v bovine serum albumin (PBS/BSA). The radiopeptides (Cf = 1 nM in 1 mL PBS/BSA) were added to all wells. A subset of wells was also treated with an excess of unlabeled GRPR-binding peptide NOTA-PEG2-RM26 (Bjäreback et al. [2025]) (Cf = 1 µM in 1 mL PBS/BSA) to block GRPR. After incubation for 1 h at 37 °C, the supernatant was removed, and the cells were washed and then collected by treating them with 1 M NaOH. The activity of the collected samples was measured with the gamma counter. This assay was performed in triplicate for each radiopeptide.

GRPR = biological target: T1, GRPR (Homo sapiens, UniProt P30550); parameters: method as in PMID 19480415; conditions: LigandTracer, PC-3 cells, previously published data, cited from earlier work
T1 construct: 3 × 10^6 PC-3 cells were seeded in 100 mm Petri dishes; host or cells: PC-3 human prostate cancer cells
T1 sequence (P30550 whole entry): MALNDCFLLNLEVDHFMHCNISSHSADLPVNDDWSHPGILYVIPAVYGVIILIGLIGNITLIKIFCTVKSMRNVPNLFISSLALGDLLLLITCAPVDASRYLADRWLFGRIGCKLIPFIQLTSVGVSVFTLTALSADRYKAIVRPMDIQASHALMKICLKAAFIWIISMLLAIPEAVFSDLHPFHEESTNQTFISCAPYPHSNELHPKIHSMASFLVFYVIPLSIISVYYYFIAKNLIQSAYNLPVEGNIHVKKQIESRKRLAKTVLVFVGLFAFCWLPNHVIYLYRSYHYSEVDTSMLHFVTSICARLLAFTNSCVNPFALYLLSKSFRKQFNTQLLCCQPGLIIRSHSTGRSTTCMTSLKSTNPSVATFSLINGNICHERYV

Molecule	in vitro binding specificity (PC-3 cells)	ka1 (GRPR; 1 and 5 nM) [M⁻¹ s⁻¹]	ka2 (GRPR; 1 and 5 nM) [M⁻¹ s⁻¹]	kd1 (GRPR; 1 and 5 nM)	kd2 (GRPR; 1 and 5 nM)	Bmax1 / Bmax2 (GRPR)
CC(C)C[C@H](NC(=O)C[C@H](O)[C@H](CC(C)C)NC(=O)[C@H](Cc1c[nH]cn1)NC(=O)CN(C)C(=O)[C@@H](NC(=O)[C@H](C)NC(=O)[C@H](Cc1c[nH]c2ccccc12)NC(=O)[C@H](CCC(N)=O)NC(=O)[C@@H](Cc1ccccc1)NC(=O)CN1CCC(NC(=O)COCCOCCNC(=O)CN2CCN(CC(=O)O)CCN(CC(=O)O)CCN(CC(=O)O)CC2)CC1)C(C)C)C(N)=O [[^177Lu]Lu-PKB1, metal not drawn]	GRPR-mediated activity uptake					
DOTAGA-PEG2-Pip-[Sar^11]RM26 [[^177Lu]Lu-AU-RM26-M2] [parent compound, AU-RM26-M2 (DOTAGA-PEG2-Pip-[Sar^11]RM26) labeled with Lu-177, previously reported by the authors]		184000	1.08e+06	3.53 × 10^–5 1/s	5.94 × 10^–2 1/s	0.16
